One data set can be described thus: Unbound fraction. It is filed as in vitro ADME.
Another data set has as its system MOLM-13 xenograft. Conditions: preclinical, no reference given; cited from earlier work.

In “Unbound fraction”, `CN1CCN(Cc2ccc(NC(=O)c3[nH]ncc3Nc3ncnc4[nH]ccc34)cc2)CC1` [FN-1501] registered an Unbound fraction of 30%. In the data set on MOLM-13 xenograft, the “Dose at which tumor growth reached stasis” value is recorded as 20 mg/kg.

Values taken from article PMC10177510, “A Multicenter, Open-Label, Phase I/II Study of FN-1501 in Patients with Advanced Solid Tumors” (Cancers, 2023).
